Results taken from US20230272368A1, “PRODUCTS AND METHODS FOR DETECTION OF VIRAL NUCLEIC ACID” (priority 2020, published 2023).

Settings: compared with sodium dodecyl sulfate (SDS)

Substance: sodium lauroyl sarcosinate [SLS]
- solubility in the compositions: detergent to be substantially more soluble in our
